# Test results published in patent US20040082477A1, “Pyrrolecarboxamides for the use as fungicdes” (priority 2001, published 2004).
smiles,measurement,value
"Cn1cc(C(=O)Nc2ccccc2-c2ccc(Br)cc2)c(C(F)F)c1 [Compound 1.2, 1-methyl-4-difluoromethyl-1H-pyrrole-3-carboxylic acid (4′-bromobiphenyl-2-yl) amide]",melting point,166 to 167 °C
